The source of these data is PMC12751015, “Evaluation of Bifunctional, PSMA-Targeted Triazamacrocycle-Picolinates Compatible with the ^18F/^44Sc/^177Lu Isotope Triad” (Journal of Medicinal Chemistry, 2025).

One data set deals with PSMA + tumor. As to conditions: 2 h p.i., clinically employed agents; ref not printed (Table S11); cited from earlier work.
Data set [1] can be described thus: pH-dependent speciation of ScF complexes by 1H and 45Sc NMR (HypNMR2008 fit). As to conditions: Sc3+ complexes, determined by HypNMR2008. The format is physicochemical. The text has this:
To establish optimal parameters for the formation of ScF ternary complexes, we determined the pH-dependent speciation of ScF complexes with H 3 mpatcn and H 2 mpatcn-am-Bz using ^1H and ^45Sc NMR spectroscopy in accordance with previous methods established for the formation of lanthanide-fluoride complexes (Supporting Information, Section S3). […] Above pH 10, the [Sc(L)-OH] species becomes most favorable, effectively outcompeting the F^– ligand at increasing concentration. Low pH conditions led to the presence of protonated species [Sc(mpatcn)-H]^+, which competes with inner sphere fluorination. […] For both ligands, no statistically significant differences for pH dependence were observed, with the % of [ScF(L)] species remaining constant between pH 3 and 8 (Table ).

`O=C(O)CC[C@H](NC(=O)N[C@@H](CCCCNC(=O)c1ccc(F)nc1)C(=O)O)C(=O)O` [Pylarify]: the “tumor to blood ratio” value with PSMA + tumor is given as 1220 ± 431.

As to `CN(Cc1ccccc1)C(=O)CN1CCN(CC(=O)O)CCN(Cc2cccc(C(=O)O)n2)CC1` [mpatcn-am-Bz], in data set [1], the logßML is given as 23.2, the logßMLF is reported as 27.8 and the logßMLOH was 13.7.

Turning to `O=C(O)CN1CCN(CC(=O)O)CCN(Cc2cccc(C(=O)O)n2)CC1` [mpatcn], in data set [1], the logßML turned out to be 23, the logßMLF turned out to be 27.7, the logßMLH came to 24.9 and the logßMLOH is reported as 14.2.
